The supplement of paper PMC10307832

Columns and labels:
Assay in all cases: relative viability (nuclei count vs DMSO), 5 days (fraction); higher = more cells survive
Carboplatin + Vorinostat = compound: C1CC(C1)(C(=O)O)C(=O)O.[NH2-].[NH2-].[Pt+2] [Carboplatin] + O=C(CCCCCCC(=O)Nc1ccccc1)NO [Vorinostat] (partner 1 µM)
How it was run: (§1)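 Five library-drug doses in √10 steps were combined with a fixed anchor-drug dose, or a single drug was given alone, by pin tool to lung cancer cell lines in 1536-well plates the day after seeding. Nuclei were stained and counted after 5 days. Relative viability is the nuclei count in treated wells over that in vehicle wells, taken as the median of duplicate plates.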

Carboplatin + OSI-027 = compound: C1CC(C1)(C(=O)O)C(=O)O.[NH2-].[NH2-].[Pt+2] [Carboplatin] + COc1cccc2cc(-c3nc([C@H]4CC[C@H](C(=O)O)CC4)n4ncnc(N)c34)[nH]c12 [OSI-027] (partner 0.5 µM)
How it was run: as §1

MLN4924 + Alpelisib = compound: NS(=O)(=O)OC[C@@H]1C[C@@H](n2ccc3c(N[C@H]4CCc5ccccc54)ncnc32)C[C@@H]1O [MLN4924] + Cc1nc(NC(=O)N2CCC[C@H]2C(N)=O)sc1-c1ccnc(C(C)(C)C(F)(F)F)c1 [Alpelisib] (partner 2 µM)
How it was run: as §1

GSK126 + OSI-027 = compound: CC[C@H](C)N1C=C(C2=C(C=C(C=C21)C3=CN=C(C=C3)N4CCNCC4)C(=O)NCC5=C(C=C(NC5=O)C)C)C [GSK126] + COc1cccc2cc(-c3nc([C@H]4CC[C@H](C(=O)O)CC4)n4ncnc(N)c34)[nH]c12 [OSI-027] (partner 0.5 µM)
How it was run: as §1

Cell Line	relative viability (Carboplatin + Vorinostat; first compound 0.08 µM)	relative viability (Carboplatin + Vorinostat; first compound 0.253 µM)	relative viability (Carboplatin + Vorinostat; first compound 0.8 µM)	relative viability (Carboplatin + Vorinostat; first compound 2.53 µM)	relative viability (Carboplatin + Vorinostat; first compound 8 µM)	relative viability (Carboplatin + OSI-027; first compound 0.08 µM)	relative viability (Carboplatin + OSI-027; first compound 0.253 µM)	relative viability (Carboplatin + OSI-027; first compound 0.8 µM)	relative viability (Carboplatin + OSI-027; first compound 2.53 µM)	relative viability (Carboplatin + OSI-027; first compound 8 µM)	relative viability (MLN4924 + Alpelisib; first compound 0.04 µM)	relative viability (MLN4924 + Alpelisib; first compound 0.1265 µM)	relative viability (MLN4924 + Alpelisib; first compound 0.4 µM)	relative viability (MLN4924 + Alpelisib; first compound 1.265 µM)	relative viability (MLN4924 + Alpelisib; first compound 4 µM)	relative viability (GSK126 + OSI-027; first compound 0.08 µM)	relative viability (GSK126 + OSI-027; first compound 0.253 µM)	relative viability (GSK126 + OSI-027; first compound 0.8 µM)	relative viability (GSK126 + OSI-027; first compound 2.53 µM)	relative viability (GSK126 + OSI-027; first compound 8 µM)
RERF-LC-KJ	0.797	0.642	0.735	0.676	0.505	0.585	0.639	0.541	0.464	0.343	0.89	0.815	0.206	0.183	0.237	0.648	0.66	0.597	0.652	0.575
NCI-H2126	0.804	0.894	0.832	0.823	0.856	0.812	0.654	0.677	0.635	0.595	0.781	0.718	0.647	0.338	0.273	0.725	0.861	0.721	0.649	0.707
LXF-289	0.788	0.787	0.775	0.793	0.713	0.882	0.871	0.816	0.828	0.716	0.814	0.715	0.452	0.231	0.142	0.838	0.86	0.784	0.877	0.768
BEN	0.658	0.611	0.598	0.625	0.581	0.295	0.304	0.266	0.287	0.292	0.868	0.458	0.372	0.151	0.147	0.324	0.349	0.281	0.288	0.287
NCI-H1993	0.801	0.809	0.8	0.712	0.522	0.463	0.556	0.566	0.51	0.498	0.808	0.555	0.596	0.569	0.541	0.492	0.53	0.557	0.542	0.541
SW 1573	0.739	1.01	0.865	0.817	0.396	0.653	0.694	0.67	0.617	0.437	1.01	0.974	0.957	0.155	0.0628	0.959	0.656	0.665	0.625	0.846
NCI-H520	0.668	0.745	0.837	0.775	0.395	0.245	0.237	0.317	0.289	0.253	0.535	0.432	0.308	0.22	0.181	0.313	0.269	0.289	0.307	0.314
LCLC-97TM1	0.753	0.749	0.661	0.504	0.654	0.481	0.615	0.594	0.554	0.474	0.255	0.208	0.129	0.114	0.119	0.503	0.421	0.546	0.606	0.635
HCC-827	1.15	0.9	0.768	0.765	0.713	0.774	0.851	0.783	0.732	0.655	0.893	0.47	0.595	0.234	0.159	0.803	0.83	0.768	0.768	0.776
NCI-H1975	0.783	0.711	0.579	0.534	0.656	0.901	0.823	0.713	0.762	0.754	0.694	1.11	1.26	0.339	0.21	0.867	0.81	0.747	0.749	0.722
